Assay results as given in US20180037923A1, “SELECTIVE DETECTION OF LACTIC ACID AND/OR ACETIC ACID BACTERIA OR OF FUNGI” (priority 2015, published 2018).
Values joined by “and” are separate entries in the source; they are usually repeats but may differ in a detail not shown here. Equal entries are not always repeated.

Tests used:
[1] = test system: Saccharomyces diastaticus; assay: Atp bioluminescence, simplified protocol, with plate count; conditions: Treated (4 h)
[2] = test system: Brettanomyces bruxellensis; assay: Atpmetry check, initial protocol (Filtravette), with plate count; type: cell-based; conditions: 4 h contact time; without antifungal 2.8.10^6 CFU/500 μL
Description: (§1) For the molecule A1, an Atpmetry check of the fungal flora destruction and of the antifungal treatment harmlesness on the lactic acid or acetic acid bacterial flora has been done for a contact time of 4 hours or 8 hours and on different strains.
(§2) Strains tested: Oenococcus oeni DSM, Gluconobacter oxydans, B. bruxellensis, S. cerevisae, prepared in MRS broth.
(§3) Materials: Lum-1 ATP meter (model analogous to Profile-1 bioluminometer from New Horizons Diagnostics) was tested with Biothema Ab bioluminescence reagents, namely reagents “ATP Eliminating Buffer”, “Extractant B/S”, “ATP Reagent HS” and 0.45 μm porosity Filtravette™ cuvette-filters from New Horizons Diagnostics.
(§4) Addition of 500 μL of the suspension without fungicidal treatment or with fungicidal treatment inside a 10 mL plastic syringe containing at its end a cell concentrator incorporating a Filtravette™.
(§5) Filtration through the Filtravette™
(§6) Filtravette™ deposit on a Filtravette™ holder with a blotter pad below
(§7) Addition of 50 μL of “ATP Eliminating Buffer” inside the Filtravette
(§8) 10 minutes incubation at room temperature
(§9) Flushing of the “ATP Eliminating Buffer” Reagent through the blotter pad by positive pressure
(§10) Homogenization and 1 minute incubation.
(§11) Addition of 240 μL of “ATP Reagent HS”. Homogenization.
(§12) Insertion of the Filtravette into the Lum-1 drawer and closure of the drawer.

Oenococcus oeni DSM = assay: as above; type: cell-based; conditions: 4 h contact time; without antifungal 0.9.10^7 CFU/500 μL
Description: as §1, §2, §3, §4, §5, §6, §7, §8, §9, §10, §11, §12

Gluconobacter oxydans = assay: as above; type: cell-based
Description: as §1, §2, §3, §4, §5, §6, §7, §8, §9, §10, §11, §12

[3] = test system: Saccharomyces cerevisae DSM; assay: as above; type: cell-based; conditions: Antifungal 4 h contact time
Description: as §1, §2, §3, §4, §5, §6, §7, §8, §9, §10, §11, §12

[4] = test system: lactic acid bacteria and acetic acid bacteria; assay: Bactericidal action on the bacterial flora (conclusion from agar plate counts); type: cell-based; conditions: bactericide = reduction by at least three decimal logarithms of CFU/ml
Source text: (§13) The word “bactericide” refers to a treatment having the effect of reducing a bacterial population by at least three decimal logarithms of colony forming units/ml on an agar plate count of a sample after treatment.
(§14) The toxicity results on yeasts and on bacteria are presented in the table below displaying the duration of exposure of the fungal flora to molecule A1 and the associated fluorescence measurement: yeasts lysis after exposure to the antifungal was confirmed by microscopic examination and methylene blue staining.
(§15) The toxicity results on yeasts and on bacteria are presented in the table below displaying the duration of exposure of the fungal flora to the molecule A2 and are obtained by enumeration on MRS agar media.

[5] = test system: Lactobacillus lindneri DSM 20690; assay: Agar plate count after contact with antifungal; type: cell-based
Source text: as §13, §14
(§16) The words “contact time” refer to below, the time of exposure of the microorganisms to the fungicidal product, here molecule A1.
(§17) Below: “No CFU” is the abbreviation for “No Colony forming unit on agar plate count”.
as §15

[6] = test system: Oenococcus oeni DSM 20252; assay: Agar plate count after contact with antifungal; type: cell-based
Source text: as §13, §14, §16, §17, §15

Pedicoccus damnosus IFBM = assay: Agar plate count after contact with antifungal; type: cell-based
Source text: as §13, §14, §16, §17, §15

[7] = test system: Lactobacillus parabuchneri DSM 5708; assay: Agar plate count after contact with antifungal; type: cell-based; conditions: count at contact time 0 h 1.4.10^6 CFU/mL
Source text: as §13, §14, §16, §17, §15

Dekkera anomala IFBM = assay: Agar plate count after contact with antifungal; type: cell-based; conditions: 400 mg/L; count at contact time 0 h 1.10^5 CFU/mL
Source text: as §13, §14, §16, §17, §15

[8] = test system: Acetobacter aceti DSM 3508; assay: Agar plate count after contact with antifungal; type: cell-based; conditions: count at contact time 0 h 2.9.10^7 CFU/mL
Source text: as §13, §14, §16, §17, §15

[9] = test system: Brettanomyces bruxellensis Wyeast labs; assay: Agar plate count after contact with antifungal; type: cell-based
Source text: as §13, §14, §16, §17, §15

[10] = test system: Lactobacillus paracasei IFBM; assay: Agar plate count after contact with antifungal; type: cell-based; conditions: count at contact time 0 h 1.4.10^7 CFU/mL
Source text: as §13, §14, §16, §17, §15

[11] = test system: Sacch. Cerevisae Saflager S23; assay: Agar plate count after contact with antifungal; type: cell-based, Saccharomyces cerevisae; conditions: 400 mg/L; count at contact time 0 h 9.10^4 CFU/mL
Source text: as §13, §14, §16, §17, §15

[12] = test system: Sacch. Cerevisae DSM 70449; assay: Agar plate count after contact with antifungal; type: cell-based, Saccharomyces cerevisae; conditions: 400 mg/L; count at contact time 0 h 8.10^4 CFU/mL
Source text: as §13, §14, §16, §17, §15

[13] = test system: Brettanomyces bruxellensis; assay: Atp bioluminescence, simplified protocol, with plate count; type: cell-based; conditions: Treated 8 h antifungal contact time
Description: Use of […] transparent Greiner Bio One sterile flat bottom disposable cuvettes with Biothema AB bioluminescence reagents • 1. […] Addition of 150 μL of “ATP Reagent HS”, Homogenization. • 4.

Sacch. Diastaticus IFBM = assay: Agar plate count after contact with antifungal; type: cell-based, Saccharomyces diastaticus; conditions: 400 mg/L; count at contact time 0 h 2.10^5 CFU/mL
Source text: as §13, §14, §16, §17, §15

yeasts = assay: Microscopic examination and methylene blue staining of yeasts after antifungal; type: cell-based
Source text: as §14

[14] = 200 mg/L, count at contact time 0 h 6.10^6 CFU/mL

C[C@@H]1[C@H](O)[C@@H](C)/C=C/C=C/C=C/C=C/C=C/C=C/C=C/[C@H](O[C@@H]2O[C@H](C)[C@@H](O)[C@H](N)[C@@H]2O)C[C@@H]2O[C@](O)(C[C@@H](O)C[C@@H](O)[C@H](O)CC[C@@H](O)C[C@@H](O)CC(=O)O[C@H]1C)C[C@H](O)[C@H]2C(=O)O [Molecule A1, Amphotericin B]
total bioluminescence in duplicate with lysis agent ([1]; start 7.5.10^1 CFU/100 μL, untreated + extractant 1934 and 1241 RLU): 482 RLU
luminescent backgroud noise in duplicate without lysis agent after luciferin/luciferase addition ([1]; start 7.5.10^1 CFU/100 μL, untreated background 34 and 34 RLU): 457 RLU and 436 RLU
total bioluminescence in duplicate with lysis agent ([1]; start 7.5.10^2 CFU/100 μL, untreated + extractant 16239 and 16707 RLU): 4393 RLU
luminescent backgroud noise in duplicate without lysis agent after luciferin/luciferase addition ([1]; start 7.5.10^2 CFU/100 μL, untreated background 211 and 223 RLU): 3803 RLU and 3837 RLU
Concentration after treatment ([1]; untreated 7.5.10^1 CFU/100 μL): 0 CFU/100 μL
Concentration after treatment ([1]; untreated 7.5.10^2 CFU/100 μL): 0 CFU/100 μL
Plate count with antifungal [2]: 0 CFU/500 μL
Plate count with antifungal (Oenococcus oeni DSM): 4.10^6 CFU/500 μL
Atp bioluminescence with antifungal treatment (Gluconobacter oxydans; MRS broth, 500 μL analysed, 1.10^7 CFU/500 μL before treatment, 115966 RLU): 77057 RLU
Plate count with antifungal (Gluconobacter oxydans; before treatment 1.10^7 CFU/500 μL): 4.1.10^6 CFU/500 μL
Agar plate count with antifungal ([3]; start 5.10^2 CFU/500 μL): time no count on agar
Atp bioluminescence with antifungal treatment ([3]; start 5.10^2 CFU/500 μL, untreated 206949 and 149508 RLU): 642 RLU
Agar plate count with antifungal ([3]; start 5.10^3 CFU/500 μL): time no count on agar
Atp bioluminescence with antifungal treatment ([3]; start 5.10^3 CFU/500 μL, untreated >1000000 RLU): 4665 RLU
Bactericidal action on lactic acid and acetic acid flora ([4]; doses of 200 mg/liter): non-bactericidal for lactic acid bacteria and acetic acid bacteria
Bactericidal action on lactic acid and acetic acid flora ([4]; doses of 400 mg/liter): non-bactericidal
Agar plate count contact time 4 h [5, 14]: 2.10^6 CFU/mL
Agar plate count contact time 4 h ([5]; 400 mg/L, count at contact time 0 h 6.10^5 CFU/mL): 7.10^4 CFU/mL
Agar plate count contact time 4 h ([6]; 200 mg/L, count at contact time 0 h 4.10^9 CFU/mL): 6.10^9 CFU/mL
Agar plate count contact time 4 h ([6]; 400 mg/L, count at contact time 0 h 4.10^7 CFU/mL): 5.10^7 CFU/mL
Agar plate count contact time 4 h (Pedicoccus damnosus IFBM; 200 mg/L, count at contact time 0 h 7.2.10^5 CFU/mL): 8.10^5 CFU/mL
Agar plate count contact time 4 h (Pedicoccus damnosus IFBM; 400 mg/L, count at contact time 0 h 1.1.10^5 CFU/mL): 2.10^7 CFU/mL
Agar plate count contact time 4 h ([7]; 200 mg/L): 1.10^6 CFU/mL
Agar plate count contact time 4 h ([7]; 400 mg/L): 3.10^5 CFU/mL
Agar plate count contact time 4 h (Dekkera anomala IFBM): No CFU
Agar plate count contact time 4 h ([8]; 200 mg/L): 8.10^8 CFU/mL
Agar plate count contact time 4 h ([8]; 400 mg/L): 3.10^7 CFU/mL
Agar plate count contact time 4 h [9, 14]: No CFU
Agar plate count contact time 4 h ([9]; 400 mg/L, count at contact time 0 h 3.10^5 CFU/mL): No CFU
Agar plate count contact time 4 h ([10]; 200 mg/L): 2.4.10^7 CFU/mL
Agar plate count contact time 4 h ([10]; 400 mg/L): 1.10^7 CFU/mL
Agar plate count contact time 4 h [11]: No CFU
Agar plate count contact time 4 h [12]: No CFU
total bioluminescence with lysis agent ([13]; start 2.7.10^2 CFU/100 μL, untreated with lysis agent 26990 and 31661, background 862 and 718 RLU): 933 RLU and 553 RLU
total bioluminescence with lysis agent ([13]; start 2.7.10^3 CFU/100 μL, untreated with lysis agent 242958 and 265513, background 5346 and 5390 RLU): 4441 RLU and 4433 RLU
Concentration after treatment ([13]; untreated 2.7.10^2 CFU/100 μL): 0 CFU/100 μL
Concentration after treatment ([13]; untreated 2.7.10^3 CFU/100 μL): 0 CFU/100 μL
Agar plate count contact time 4 h (Sacch. Diastaticus IFBM): No CFU
yeasts lysis after exposure to the antifungal (yeasts): confirmed
